Reference: patent US20200095192A1, “BIODEGRADABLE DIETHANOLAMINE DERIVATIVE CHELATING AGENT AND PREPARATION PROCESS THEREOF” (PTT Global Chemical Public Company Limited, priority 2017, published 2020)
Read-outs that look alike come from different tables or passages of the source.

How the values were obtained:
[1] = calcium chelation value of crude ligand; type: physicochemical; parameters: unit not given here
Procedure: (§1) The diethanolamine derivatives and maleic anhydride can be synthesized by the reaction according to equation (I). The diethanolamine precursor, maleic anhydride, and selected catalyst were added into about 15-20 mL of dichloromethane solvent, wherein the amounts of each compounds were shown in table 1. Then, the obtained mixture was refluxed at the temperature of 50° C. until the reaction was completed. The amount of precursors being used was monitored. The solvent was removed from the obtained product. The obtained product was dissolved in 50 mL of distilled water and washed with dichloromethane for at least 3 times (30 mL each). After being washed, the obtained product was dried under vacuum and analyzed for its property using ^1H NMR spectroscopy and liquid chromatography mass spectrometry (LC/MS) technique.
as §1, with “succinic” for “maleic”, “(II).” for “(I).”, “3.” for “1.”, “in” for “in 50 mL of”, “water (50 mL)” for “water”
as §1, with “and succinic” for “and maleic”, “equation (III).” for “equation (I).”, “precursor, phthalic” for “precursor, maleic”, “table 5.” for “table 1.”, “in” for “in 50 mL of”, “water (50 mL)” for “water”

[2] = barium (Ba^2+); previous disclosed chelating agent; cited from earlier work
[3] = tin (Pb^2+); previous disclosed chelating agent; cited from earlier work
[4] = cobolt (Co^2+); previous disclosed chelating agent; cited from earlier work
[5] = iron (Fe^3+); previous disclosed chelating agent; cited from earlier work
[6] = cadmium (Cd^2+); previous disclosed chelating agent; cited from earlier work
[7] = zinc (Zn^2+); previous disclosed chelating agent; cited from earlier work
[8] = magnesium (Mg^2+); previous disclosed chelating agent; cited from earlier work
[9] = nickel (Ni^2+); previous disclosed chelating agent; cited from earlier work
[10] = copper (Cu2+); previous disclosed chelating agent; cited from earlier work
[11] = calcium (Ca^2+); previous disclosed chelating agent; cited from earlier work
[12] = manganese (Mn^2+); previous disclosed chelating agent; cited from earlier work
[13] = aluminium (Al^3+); previous disclosed chelating agent; cited from earlier work
[14] = mercury (Hg^2+); previous disclosed chelating agent; cited from earlier work
[15] = iron (Fe^2+); previous disclosed chelating agent; cited from earlier work
[16] = stability constant by complex titration; type: physicochemical; conditions: synthesized chelating agent
From the text: The analysis of stability constant between the synthesized chelating agent and metal ions can be performed by complex titration wherein the stability constant of the synthesized chelating agent and metal ions comparing to the previous disclosed degradable chelating agent can be performed according to table 7.

[17] = crude of ligand 3-1 to ligand 3-7 without purification
[18] = crude of ligand 1-1 to ligand 1-11 without purification
[19] = crude of ligand 2-1 to ligand 2-9 without purification

O=C(O)c1ccccc1C(=O)OCCN(CCOC(=O)c1ccccc1C(=O)O)C(=O)c1ccccc1C(=O)O [ligand 3-7] gave a calcium chelation value [1, 17] of 76.
With O=C(O)/C=C/C(=O)OCCN(CCOC(=O)/C=C/C(=O)O)C(=O)/C=C/C(=O)O [ligand 1-11] the calcium chelation value [1, 18] was 60.
Compound O=C(O)CCC(=O)OCCN(CCOC(=O)CCC(=O)O)C(=O)CCC(=O)O [ligand 2-2] has a calcium chelation value [1, 19] of 8.
Compound O=C(O)c1ccccc1C(=O)OCCN(CCOC(=O)c1ccccc1C(=O)O)C(=O)c1ccccc1C(=O)O [ligand 3-3] has a calcium chelation value [1, 17] of 81.
With O=C(O)CCC(=O)OCCN(CCOC(=O)CCC(=O)O)C(=O)CCC(=O)O [ligand 2-4] the calcium chelation value [1, 19] was 21.
O=C(O)/C=C/C(=O)OCCN(CCOC(=O)/C=C/C(=O)O)C(=O)/C=C/C(=O)O [ligand 1-8] showed a calcium chelation value [1, 18] of 58.
In the case of O=C(O)CCC(=O)OCCN(CCOC(=O)CCC(=O)O)C(=O)CCC(=O)O [ligand 2-1], the calcium chelation value [1, 19] is reported as 5.
Work on O=C(O)CCC(=O)OCCN(CCOC(=O)CCC(=O)O)C(=O)CCC(=O)O [ligand 2-8] yielded a calcium chelation value [1, 19] of 83.
Work on O=C(O)/C=C/C(=O)OCCN(CCOC(=O)/C=C/C(=O)O)C(=O)/C=C/C(=O)O [ligand 1-7] yielded a calcium chelation value [1, 18] of 46.
Work on O=C(O)c1ccccc1C(=O)OCCN(CCOC(=O)c1ccccc1C(=O)O)C(=O)c1ccccc1C(=O)O [ligand 3-2] yielded a calcium chelation value [1, 17] of 15.
O=C(O)/C=C/C(=O)OCCN(CCOC(=O)/C=C/C(=O)O)C(=O)/C=C/C(=O)O [ligand 1-4] showed a calcium chelation value [1, 18] of 9.
In the case of O=C(O)C[C@H](NCCN[C@@H](CC(=O)O)C(=O)O)C(=O)O [EDDS, ethylene diamine-N,N-disuccinic acid], the stability constant [2] is listed as 3.0, the stability constant [3] is listed as 12.7 and the stability constant [4] is listed as 13.6. For the same compound, the stability constant [5] was 22.0, the stability constant [6] was 16.4 and the stability constant [7] was 13.4. The stability constant [8] was 6.0, the stability constant [9] was 16.7 and the stability constant [10] was 18.4. The stability constant [11] was 4.6.
In the case of O=C(O)c1ccccc1C(=O)OCCN(CCOC(=O)c1ccccc1C(=O)O)C(=O)c1ccccc1C(=O)O [ligand 3-1], the calcium chelation value [1, 17] is reported as 25.
In the case of O=C(O)/C=C/C(=O)OCCN(CCOC(=O)/C=C/C(=O)O)C(=O)/C=C/C(=O)O [ligand 1-1], the calcium chelation value [1, 18] is reported as 4.
For O=C(O)CCC(=O)OCCN(CCOC(=O)CCC(=O)O)C(=O)CCC(=O)O [ligand 2-5], the calcium chelation value [1, 19] was 45.
Compound O=C(O)c1ccccc1C(=O)OCCN(CCOC(=O)c1ccccc1C(=O)O)C(=O)c1ccccc1C(=O)O [ligand 3-5] has a calcium chelation value [1, 17] of 75.
For O=C(O)CC(OCCN(CCOC(CC(=O)O)C(=O)O)[C@@H](CC(=O)O)C(=O)O)C(=O)O (stereo partly shown) [BCA6], the stability constant [2] is listed as 6.1, the stability constant [3] is listed as 10.82 and the stability constant [5] is listed as 17.3. The stability constant [6] was 11.09, the stability constant [12] was 9.28 and the stability constant [13] was 6.14. For the same compound, the stability constant [7] was 11.34, the stability constant [8] was 5.98 and the stability constant [14] was 14.85. The stability constant [10] was 13.08 and the stability constant [11] was 7.71.
In the case of O=C(O)CC(NC(CC(=O)O)C(=O)O)C(=O)O (stereo not shown) [IDS, iminodisuccinic acid], the stability constant [2] is listed as 2.1, the stability constant [3] is listed as 11.0 and the stability constant [4] is listed as 10.5. The stability constant [5] was 15.2, the stability constant [6] was 8.4 and the stability constant [12] was 7.7. For the same compound, the stability constant [13] was 14.1, the stability constant [7] was 10.8 and the stability constant [15] was 8.2. For the same compound, the stability constant [8] was 6.1, the stability constant [14] was 14.9 and the stability constant [9] was 12.2. For the same compound, the stability constant [10] was 13.1 and the stability constant [11] was 5.2.
Compound O=C(O)CCC(=O)OCCN(CCOC(=O)CCC(=O)O)C(=O)CCC(=O)O [ligand 2-6] has a calcium chelation value [1, 19] of 87.
O=C(O)/C=C/C(=O)OCCN(CCOC(=O)/C=C/C(=O)O)C(=O)/C=C/C(=O)O [ligand 1-9] showed a calcium chelation value [1, 18] of 83.
In the case of O=C(O)CCC(=O)OCCN(CCOC(=O)CCC(=O)O)C(=O)CCC(=O)O [ligand 2-3], the calcium chelation value [1, 19] is reported as 55.
For O=C(O)/C=C/C(=O)OCCN(CCOC(=O)/C=C/C(=O)O)C(=O)/C=C/C(=O)O [ligand 1-5], the calcium chelation value [1, 18] was 3.
For O=C(O)CCC(=O)OCCN(CCOC(=O)CCC(=O)O)C(=O)CCC(=O)O [ligand 2-7], the calcium chelation value [1, 19] was 42.
With O=C(O)/C=C/C(=O)OCCN(CCOC(=O)/C=C/C(=O)O)C(=O)/C=C/C(=O)O [ligand 1-3] the calcium chelation value [1, 18] was 13.
For O=C(O)/C=C/C(=O)OCCN(CCOC(=O)/C=C/C(=O)O)C(=O)/C=C/C(=O)O [ligand 1], the stability constant ([16]; aluminium (Al^3+)) was 10.7, the stability constant ([16]; barium (Ba^2+)) was 7.8 and the stability constant ([16]; cadmium (Cd^2+)) was 8.5. The stability constant ([16]; calcium (Ca^2+)) was 9.3, the stability constant ([16]; cobolt (Co^2+)) was 10.4 and the stability constant ([16]; copper (Cu2+)) was 12.8. It also gave a stability constant ([16]; iron (Fe^2+)) of 14.8, a stability constant ([16]; iron (Fe^3+)) of 9.5 and a stability constant ([16]; magnesium (Mg^2+)) of 8.3. It also gave a stability constant ([16]; manganese (Mn^2+)) of 10.4, a stability constant ([16]; mercury (Hg^2+)) of 7.8 and a stability constant ([16]; nickel (Ni^2+)) of 5.0. It also gave a stability constant ([16]; strontium (Sr^2+)) of 7.7, a stability constant ([16]; tin (Pb^2+)) of 11.4 and a stability constant ([16]; zinc (Zn^2+)) of 9.0.
In the case of O=C(O)/C=C/C(=O)OCCN(CCOC(=O)/C=C/C(=O)O)C(=O)/C=C/C(=O)O [ligand 1-10], the calcium chelation value [1, 18] is reported as 62.
With O=C(O)CCC(=O)OCCN(CCOC(=O)CCC(=O)O)C(=O)CCC(=O)O [ligand 2] the stability constant ([16]; aluminium (Al^3+)) was 11.4, the stability constant ([16]; barium (Ba^2+)) was 6.2 and the stability constant ([16]; cadmium (Cd^2+)) was 7.2. It also gave a stability constant ([16]; calcium (Ca^2+)) of 10.1, a stability constant ([16]; cobolt (Co^2+)) of 7.5 and a stability constant ([16]; copper (Cu2+)) of 10.5. For the same compound, the stability constant ([16]; iron (Fe^2+)) was 12.3, the stability constant ([16]; iron (Fe^3+)) was 7.5 and the stability constant ([16]; magnesium (Mg^2+)) was 8.1. It also gave a stability constant ([16]; manganese (Mn^2+)) of 9.1, a stability constant ([16]; mercury (Hg^2+)) of 9.5 and a stability constant ([16]; nickel (Ni^2+)) of 5.4. For the same compound, the stability constant ([16]; strontium (Sr^2+)) was 5.3, the stability constant ([16]; tin (Pb^2+)) was 9.9 and the stability constant ([16]; zinc (Zn^2+)) was 7.9.
Work on O=C(O)/C=C/C(=O)OCCN(CCOC(=O)/C=C/C(=O)O)C(=O)/C=C/C(=O)O [ligand 1-2] yielded a calcium chelation value [1, 18] of 15.
Compound O=C(O)CCC(=O)OCCN(CCOC(=O)CCC(=O)O)C(=O)CCC(=O)O [ligand 2-9] has a calcium chelation value [1, 19] of 85.
O=C(O)c1ccccc1C(=O)OCCN(CCOC(=O)c1ccccc1C(=O)O)C(=O)c1ccccc1C(=O)O [ligand 3-6] showed a calcium chelation value [1, 17] of 88.
For O=C(O)c1ccccc1C(=O)OCCN(CCOC(=O)c1ccccc1C(=O)O)C(=O)c1ccccc1C(=O)O [ligand 3-4], the calcium chelation value [1, 17] was 70.
In the case of CC(C(=O)O)N(CC(=O)O)CC(=O)O (stereo not shown) [MGDA, methylglycinediacetic acid], the stability constant [2] is given as 4.9, the stability constant [5] is given as 16.5 and the stability constant [12] is given as 8.4. The stability constant [7] was 10.9, the stability constant [15] was 8.1 and the stability constant [8] was 5.8. The stability constant [9] was 12.0, the stability constant [10] was 13.9 and the stability constant [11] was 7.0.
